What was measured:
TLR8 = molecular target: T1, TLR8 (Homo sapiens, UniProt Q9NR97); assay: Human whole blood assay, TLR8-specific agonist stimulation, IL-6 by AlphaLISA; format: cell-based; settings: TLR8-specific agonist 0.5 µM, IL-6 readout, read-out: IC50 TLR8 (IL6 READOUT) HUMAN WHOLE BLOOD (N=2)
T1 construct: Human whole blood from healthy donors was drawn into EDTA Vacutainer tubes; endogenous in cells; host or cells: human whole blood (healthy donors)
T1 sequence (Q9NR97 27-1041): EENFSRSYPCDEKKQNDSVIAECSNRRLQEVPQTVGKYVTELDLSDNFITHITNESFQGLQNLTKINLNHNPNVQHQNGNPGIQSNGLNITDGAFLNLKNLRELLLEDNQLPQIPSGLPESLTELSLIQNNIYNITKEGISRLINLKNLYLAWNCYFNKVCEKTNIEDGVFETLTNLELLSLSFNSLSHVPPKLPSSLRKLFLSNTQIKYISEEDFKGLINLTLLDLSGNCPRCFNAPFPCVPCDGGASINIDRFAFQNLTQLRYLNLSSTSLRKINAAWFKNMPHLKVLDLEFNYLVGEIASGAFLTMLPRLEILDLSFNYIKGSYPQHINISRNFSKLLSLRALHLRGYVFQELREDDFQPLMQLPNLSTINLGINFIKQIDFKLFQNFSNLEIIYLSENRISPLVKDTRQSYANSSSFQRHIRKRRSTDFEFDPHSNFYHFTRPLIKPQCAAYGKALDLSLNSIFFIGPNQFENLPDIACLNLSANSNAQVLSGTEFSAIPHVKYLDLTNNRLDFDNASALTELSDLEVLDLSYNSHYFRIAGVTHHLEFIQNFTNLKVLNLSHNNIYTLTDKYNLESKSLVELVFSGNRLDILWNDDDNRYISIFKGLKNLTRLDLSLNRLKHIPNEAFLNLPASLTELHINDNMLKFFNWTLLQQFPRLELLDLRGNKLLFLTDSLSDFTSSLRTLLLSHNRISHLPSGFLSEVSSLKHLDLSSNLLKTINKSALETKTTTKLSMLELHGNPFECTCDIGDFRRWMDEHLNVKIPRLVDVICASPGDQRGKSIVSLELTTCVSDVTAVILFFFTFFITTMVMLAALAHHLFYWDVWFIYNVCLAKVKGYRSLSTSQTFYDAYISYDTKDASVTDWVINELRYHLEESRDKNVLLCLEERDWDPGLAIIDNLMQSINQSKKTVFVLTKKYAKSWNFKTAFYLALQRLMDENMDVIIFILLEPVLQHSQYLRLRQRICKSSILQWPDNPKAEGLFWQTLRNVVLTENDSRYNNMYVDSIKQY
Protocol: (§1) Human whole blood from healthy donors was drawn into EDTA Vacutainer tubes and the experiment started within 2 hr of draw. Four parts blood was diluted with 1 part PBS. 10 mM compounds stock solutions were serially diluted 1:3 eleven times in DMSO. Each serial dilution was further diluted by transferring 3 µl to 100 µl RPMI. For the stimulation only and no stimulation controls, 3 µl 100% DMSO was transferred to 100 µl RPMI. Then, 5 µl of each of these dilutions were transferred to 96-well tissue culture grade U-bottom plate in triplicate for each ligand and each donor. Final inhibitor concentrations were 10, 3.3, 1.1, 0.37, 0.12, 0.04, 0.014, 0.0046, 0.0015, 0.00051, 0.00017, 0.00006 µM. No inhibitor (stimulation only) controls were included in triplicate for each donor. Diluted blood was dispensed on top of inhibitor dilutions at 150 µl/well. Plates were incubated at 37° C. 5% CO2 for 30 min. For TLR7 stimulation, 10 mM stock of a TLR7-specific small molecule agonist in DMSO was diluted to 90 µM in RPMI and 5 µl were added to each inhibitor dilution for each donor. Final concentration was 3 µM. For TLR8 stimulation, 10 mM stock of a TLR8-specific small molecule agonist in DMSO was diluted to 15 µM in RPMI and 5 µl were added to each inhibitor dilution for each donor. Final concentration was 0.5 µM. No stimulation controls were included in triplicate for each donor. Plates were incubated at 37° C. 5% CO2 overnight. Next day, plasma was collected and IL-6 was measured by AlphaLISA (PerkinElmer AL223 according to manufacturer’s protocol.

TLR7 = molecular target: T2, TLR7 (Homo sapiens, UniProt Q9NYK1); assay: Human whole blood assay, TLR7-specific agonist stimulation, IL-6 by AlphaLISA; format: cell-based; design: Human whole blood from healthy donors was drawn into EDTA Vacutainer tubes; endogenous in cells; host or cells: human whole blood (healthy donors); settings: TLR7-specific agonist 3 µM, IL-6 readout, read-out: IC50 TLR7 (IL6 READOUT) HUMAN WHOLE BLOOD (N=2)
T2 sequence (Q9NYK1 27-1049): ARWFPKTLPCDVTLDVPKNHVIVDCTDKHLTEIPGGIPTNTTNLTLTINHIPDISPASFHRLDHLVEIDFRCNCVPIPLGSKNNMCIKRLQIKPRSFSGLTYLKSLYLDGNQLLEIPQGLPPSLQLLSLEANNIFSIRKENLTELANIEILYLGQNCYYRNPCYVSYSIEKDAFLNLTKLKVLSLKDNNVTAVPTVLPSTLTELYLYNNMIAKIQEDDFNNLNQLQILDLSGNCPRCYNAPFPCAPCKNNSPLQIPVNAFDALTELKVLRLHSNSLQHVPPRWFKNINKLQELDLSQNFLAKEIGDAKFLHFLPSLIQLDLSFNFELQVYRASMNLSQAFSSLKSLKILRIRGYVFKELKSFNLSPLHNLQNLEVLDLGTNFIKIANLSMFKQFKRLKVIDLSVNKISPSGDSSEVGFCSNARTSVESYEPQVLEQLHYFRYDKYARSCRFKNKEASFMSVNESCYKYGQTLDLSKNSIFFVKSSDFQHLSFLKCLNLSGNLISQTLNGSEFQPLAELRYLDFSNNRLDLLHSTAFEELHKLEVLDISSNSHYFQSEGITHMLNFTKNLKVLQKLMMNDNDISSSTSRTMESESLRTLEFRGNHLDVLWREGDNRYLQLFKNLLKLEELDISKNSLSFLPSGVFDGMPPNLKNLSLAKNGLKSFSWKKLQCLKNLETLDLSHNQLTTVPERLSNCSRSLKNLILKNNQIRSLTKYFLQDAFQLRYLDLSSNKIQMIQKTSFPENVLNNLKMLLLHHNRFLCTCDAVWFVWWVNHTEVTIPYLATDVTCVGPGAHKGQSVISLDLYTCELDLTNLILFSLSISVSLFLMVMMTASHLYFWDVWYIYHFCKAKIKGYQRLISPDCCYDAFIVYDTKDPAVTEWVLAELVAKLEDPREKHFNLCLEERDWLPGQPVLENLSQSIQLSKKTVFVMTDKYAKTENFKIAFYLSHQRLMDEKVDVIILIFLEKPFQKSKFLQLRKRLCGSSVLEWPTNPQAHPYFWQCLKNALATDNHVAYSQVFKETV
Protocol: as §1

Compound | IC50 (TLR8) [nM] | IC50 (TLR7) [nM]
COc1ccc2nc3cc(Cl)ccc3c(Nc3cc(CN4CCCC4)c(O)c(CN4CCCC4)c3)c2n1 [Compound 1, Pyronaridine] | 610 | 210
CCN(CCO)CCCC(C)Nc1ccnc2cc(Cl)ccc12 (stereo not shown) [HYDROXY-CHLOROQUINE HCQ, hydroxychloroquine] | 1240 | 960

From US20230301981A1, “TLR7/8 ANTAGONISTS AND USES THEREOF” (Merck Patent GmbH, priority 2020, published 2023)
